The source made the active and inactive calls. The rule behind the calls is not given here.
How the values were obtained:
[1] = tested on: NCI-H23; assay: Growth inhibition of human NCI-H23 cells after 48 hrs by SRB assay; assay type: functional; settings: NCI-H23, 48 h
[2] = tested on: HCT-15; assay: Growth inhibition of human HCT15 cells after 48 hrs by SRB assay; assay type: functional; settings: HCT-15, 48 h
[3] = target: Rho-related GTP-binding protein RhoB (Homo sapiens) (UniProt P62745); assay: Transactivation of RhoB (unknown origin) transfected in human HeLa cells at 5 uM measured over 10 secs by dual luciferase reporter gene assay; assay type: cell-based
[4] = tested on: NUGC-3; assay: Growth inhibition of human NUGC3 cells after 48 hrs by SRB assay; assay type: functional; settings: NUGC-3, 48 h
[5] = tested on: ACHN; assay: Growth inhibition of human ACHN cells after 48 hrs by SRB assay; assay type: functional
[6] = tested on: MDA-MB-231; assay: Growth inhibition of human MDA-MB-231 cells after 48 hrs by SRB assay; assay type: functional; settings: MDA-MB-231, 48 h
[7] = tested on: PC-3; assay: Growth inhibition of human PC3 cells after 48 hrs by SRB assay; assay type: functional; settings: PC-3, 48 h
[8] = tested on: PC-3; assay: Growth of human PC3 cells at 10 uM after 48 hrs by SRB assay; settings: PC-3, 48 h
[9] = tested on: NUGC-3; assay: Growth of human NUGC3 cells at 1 uM after 48 hrs by SRB assay; settings: NUGC-3, 48 h
[10] = tested on: ACHN; assay: Growth of human ACHN cells at 10 uM after 48 hrs by SRB assay
[11] = tested on: HCT-15; assay: Growth of human HCT15 cells at 3 uM after 48 hrs by SRB assay; settings: HCT-15, 48 h
[12] = tested on: ACHN; assay: Growth of human ACHN cells at 0.1 uM after 48 hrs by SRB assay
[13] = tested on: ACHN; assay: Growth of human ACHN cells at 0.3 uM after 48 hrs by SRB assay
[14] = tested on: NUGC-3; assay: Growth of human NUGC3 cells at 0.1 uM after 48 hrs by SRB assay; settings: NUGC-3, 48 h
[15] = tested on: NUGC-3; assay: Growth of human NUGC3 cells at 0.3 uM after 48 hrs by SRB assay; settings: NUGC-3, 48 h
[16] = tested on: HCT-15; assay: Growth of human HCT15 cells at 0.3 uM after 48 hrs by SRB assay; settings: HCT-15, 48 h
[17] = tested on: NCI-H23; assay: Growth of human NCI-H23 cells at 10 uM after 48 hrs by SRB assay; settings: NCI-H23, 48 h
[18] = tested on: NCI-H23; assay: Growth of human NCI-H23 cells at 0.3 uM after 48 hrs by SRB assay; settings: NCI-H23, 48 h
[19] = tested on: MDA-MB-231; assay: Growth of human MDA-MB-231 cells at 1 uM after 48 hrs by SRB assay; settings: MDA-MB-231, 48 h
[20] = tested on: MDA-MB-231; assay: Growth of human MDA-MB-231 cells at 10 uM after 48 hrs by SRB assay; settings: MDA-MB-231, 48 h
[21] = tested on: MDA-MB-231; assay: Growth of human MDA-MB-231 cells at 0.1 uM after 48 hrs by SRB assay; settings: MDA-MB-231, 48 h
[22] = tested on: MDA-MB-231; assay: Growth of human MDA-MB-231 cells at 3 uM after 48 hrs by SRB assay; values are per cent of control; settings: MDA-MB-231, 48 h
[23] = tested on: PC-3; assay: Growth inhibition of human PC3 cells at 1 uM after 48 hrs by SRB assay; values are per cent of control; settings: PC-3, 48 h
[24] = tested on: PC-3; assay: Growth inhibition of human PC3 cells at 3 uM after 48 hrs by SRB assay; values are per cent of control; settings: PC-3, 48 h
[25] = tested on: ACHN; assay: Growth inhibition of human ACHN cells at 3 uM after 48 hrs by SRB assay; values are per cent of control
[26] = tested on: ACHN; assay: Growth inhibition of human ACHN cells at 1 uM after 48 hrs by SRB assay; values are per cent of control
[27] = tested on: NUGC-3; assay: Growth inhibition of human NUGC3 cells at 3 uM after 48 hrs by SRB assay; values are per cent of control; settings: NUGC-3, 48 h
[28] = tested on: PC-3; assay: Growth inhibition of human PC3 cells at 0.1 uM after 48 hrs by SRB assay; values are per cent of control; settings: PC-3, 48 h
[29] = tested on: PC-3; assay: Growth inhibition of human PC3 cells at 0.3 uM after 48 hrs by SRB assay; values are per cent of control; settings: PC-3, 48 h
[30] = tested on: HCT-15; assay: Growth inhibition of human HCT15 cells at 1 uM after 48 hrs by SRB assay; values are per cent of control; settings: HCT-15, 48 h
[31] = tested on: NUGC-3; assay: Growth inhibition of human NUGC3 cells at 10 uM after 48 hrs by SRB assay; values are per cent of control; settings: NUGC-3, 48 h
[32] = tested on: HCT-15; assay: Growth inhibition of human HCT15 cells at 10 uM after 48 hrs by SRB assay; values are per cent of control; settings: HCT-15, 48 h
[33] = tested on: NCI-H23; assay: Growth inhibition of human NCI-H23 cells at 1 uM after 48 hrs by SRB assay; values are per cent of control; settings: NCI-H23, 48 h
[34] = tested on: NCI-H23; assay: Growth inhibition of human NCI-H23 cells at 3 uM after 48 hrs by SRB assay; values are per cent of control; settings: NCI-H23, 48 h
[35] = tested on: HCT-15; assay: Growth inhibition of human HCT15 cells at 0.1 uM after 48 hrs by SRB assay; values are per cent of control; settings: HCT-15, 48 h
[36] = tested on: NCI-H23; assay: Growth inhibition of human NCI-H23 cells at 0.1 uM after 48 hrs by SRB assay; values are per cent of control; settings: NCI-H23, 48 h
[37] = tested on: MDA-MB-231; assay: Growth inhibition of human MDA-MB-231 cells at 0.3 uM after 48 hrs by SRB assay; values are per cent of control; settings: MDA-MB-231, 48 h

Chain of Rho-related GTP-binding protein RhoB (Homo sapiens) (P62745 whole entry): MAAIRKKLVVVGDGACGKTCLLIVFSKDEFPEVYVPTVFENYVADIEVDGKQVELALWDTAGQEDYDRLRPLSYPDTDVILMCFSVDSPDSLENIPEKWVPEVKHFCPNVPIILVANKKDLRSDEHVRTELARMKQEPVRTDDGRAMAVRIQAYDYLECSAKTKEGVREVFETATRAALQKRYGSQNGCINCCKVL

GI50 [1] [nM] | GI50 [2] [nM] | GI50 [5] [nM] | GI50 [6] [nM] | GI50 [7] [nM] | Structure (SMILES) | GI50 [4] [nM] | growth, % of control at 10 µM [8] [%] | growth, % of control at 1 µM [9] [%] | growth, % of control at 10 µM [10] [%] | growth, % of control at 3 µM [11] [%] | growth, % of control at 0.1 µM [12] [%] | growth, % of control at 0.3 µM [13] [%] | growth, % of control at 0.1 µM [14] [%] | growth, % of control at 0.3 µM [15] [%] | growth, % of control at 0.3 µM [16] [%] | growth, % of control at 10 µM [17] [%] | growth, % of control at 0.3 µM [18] [%] | growth, % of control at 1 µM [19] [%] | growth, % of control at 10 µM [20] [%] | growth, % of control at 0.1 µM [21] [%] | further results
1810 | 1260 | 1750 | 540 | 570 | CCCCCCCCCCCCCCCCS(=O)(=O)N(C)CC[N+](C)(C)CC | 360 | -18.7 | 30 | 21.5 | 35.2 | 96.2 | 93.9 | 88 | 81.3 | 98.4 | 13.5 | 78.3 | 51.9 | -3.8 | 75.8 | Activity [3]: Active; growth, % of control at 3 µM [22]: 36.5%; growth, % of control at 1 µM [23]: 54.1%; growth, % of control at 3 µM [24]: 14.2%; growth, % of control at 3 µM [25]: 52.7%; growth, % of control at 1 µM [26]: 77.8%; growth, % of control at 3 µM [27]: 17.2%; growth, % of control at 0.1 µM [28]: 91.4%; growth, % of control at 0.3 µM [29]: 87.3%; growth, % of control at 1 µM [30]: 69.7%; growth, % of control at 10 µM [31]: 4%; growth, % of control at 10 µM [32]: 26.7%; growth, % of control at 1 µM [33]: 84%; growth, % of control at 3 µM [34]: 61.6%; growth, % of control at 0.1 µM [35]: 101%; growth, % of control at 0.1 µM [36]: 80.8%; growth, % of control at 0.3 µM [37]: 77.8%
210 | 680 | 1010 | 1260 | 300 | CCCCCCCCCCCCCCS(=O)(=O)N(C)CCC[N+](C)(C)C | 150 | -17.4 | 22.7 | 27.1 | 29.9 | 85.3 | 93.4 | 83.9 | 42.8 | 87.9 | -50.6 | 70.6 | 66.6 | 23.5 | 102 | Activity [3]: Active; growth, % of control at 3 µM [22]: 42.1%; growth, % of control at 1 µM [23]: 18.6%; growth, % of control at 3 µM [24]: -0.1%; growth, % of control at 3 µM [25]: 37.8%; growth, % of control at 1 µM [26]: 57.2%; growth, % of control at 3 µM [27]: 8.5%; growth, % of control at 0.1 µM [28]: 97.1%; growth, % of control at 0.3 µM [29]: 86.4%; growth, % of control at 1 µM [30]: 46.2%; growth, % of control at 10 µM [31]: -12.9%; growth, % of control at 10 µM [32]: 24.8%; growth, % of control at 1 µM [33]: 8%; growth, % of control at 3 µM [34]: -19.7%; growth, % of control at 0.1 µM [35]: 92.4%; growth, % of control at 0.1 µM [36]: 84.8%; growth, % of control at 0.3 µM [37]: 98.1%
690 | 1350 | 2270 | 2790 | 790 | CCCCCCCCCCCCCCCCS(=O)(=O)NCC(C)(C)C[N+](C)(C)CC | 570 | -11.1 | 43.8 | 104 | 40.2 | 108 | 100 | 115 | 108 | 138 | -10.9 | 92.1 | 88.6 | 27.1 | 108 | growth, % of control at 3 µM [22]: 66%; growth, % of control at 1 µM [23]: 69.4%; growth, % of control at 3 µM [24]: 12.9%; growth, % of control at 3 µM [25]: 102%; growth, % of control at 1 µM [26]: 99.6%; growth, % of control at 3 µM [27]: 18.8%; growth, % of control at 0.1 µM [28]: 109%; growth, % of control at 0.3 µM [29]: 99.5%; growth, % of control at 1 µM [30]: 63.2%; growth, % of control at 10 µM [31]: 0%; growth, % of control at 10 µM [32]: 21.3%; growth, % of control at 1 µM [33]: 50.5%; growth, % of control at 3 µM [34]: 30.4%; growth, % of control at 0.1 µM [35]: 141%; growth, % of control at 0.1 µM [36]: 100%; growth, % of control at 0.3 µM [37]: 103%

Source: ChEMBL document CHEMBL2434921, “New synthetic aliphatic sulfonamido-quaternary ammonium salts as anticancer chemotherapeutic agents” (2013)
